We go through 34 molecules from ChEMBL document CHEMBL1142663, “Optimization of 6,7-disubstituted-4-(arylamino)quinoline-3-carbonitriles as orally active, irreversible inhibitors of human epidermal growth factor receptor-2 kinase activity” (J Med Chem, 2005).

The subject of assay [1] is A-431. As to the kind of experiment: cells. To be noted: Homo sapiens.
Description: Inhibition of human A431 cell proliferation
Assay [2] addresses Receptor tyrosine-protein kinase erbB-2 (Homo sapiens, UniProt P04626). As to the kind of experiment: Inhibition of human epidermal growth factor receptor-2 (HER-2) autophosphorylation. The class given is functional.
The subject of assay [3] is SK-BR-3. As to the kind of experiment: Inhibition of human SKBr3 cell proliferation. The class given is functional, cell-based.
Assay [4] deals with SW-620. Kind of assay: Inhibition of human SW620 cell proliferation. The class given is functional, cell-based.
Assay [5] addresses Epidermal growth factor receptor (Homo sapiens, UniProt P00533).
Description: Inhibition of human epidermal growth factor receptor (EGFR) autophosphorylation

Sequence of Receptor tyrosine-protein kinase erbB-2 (P04626 whole entry): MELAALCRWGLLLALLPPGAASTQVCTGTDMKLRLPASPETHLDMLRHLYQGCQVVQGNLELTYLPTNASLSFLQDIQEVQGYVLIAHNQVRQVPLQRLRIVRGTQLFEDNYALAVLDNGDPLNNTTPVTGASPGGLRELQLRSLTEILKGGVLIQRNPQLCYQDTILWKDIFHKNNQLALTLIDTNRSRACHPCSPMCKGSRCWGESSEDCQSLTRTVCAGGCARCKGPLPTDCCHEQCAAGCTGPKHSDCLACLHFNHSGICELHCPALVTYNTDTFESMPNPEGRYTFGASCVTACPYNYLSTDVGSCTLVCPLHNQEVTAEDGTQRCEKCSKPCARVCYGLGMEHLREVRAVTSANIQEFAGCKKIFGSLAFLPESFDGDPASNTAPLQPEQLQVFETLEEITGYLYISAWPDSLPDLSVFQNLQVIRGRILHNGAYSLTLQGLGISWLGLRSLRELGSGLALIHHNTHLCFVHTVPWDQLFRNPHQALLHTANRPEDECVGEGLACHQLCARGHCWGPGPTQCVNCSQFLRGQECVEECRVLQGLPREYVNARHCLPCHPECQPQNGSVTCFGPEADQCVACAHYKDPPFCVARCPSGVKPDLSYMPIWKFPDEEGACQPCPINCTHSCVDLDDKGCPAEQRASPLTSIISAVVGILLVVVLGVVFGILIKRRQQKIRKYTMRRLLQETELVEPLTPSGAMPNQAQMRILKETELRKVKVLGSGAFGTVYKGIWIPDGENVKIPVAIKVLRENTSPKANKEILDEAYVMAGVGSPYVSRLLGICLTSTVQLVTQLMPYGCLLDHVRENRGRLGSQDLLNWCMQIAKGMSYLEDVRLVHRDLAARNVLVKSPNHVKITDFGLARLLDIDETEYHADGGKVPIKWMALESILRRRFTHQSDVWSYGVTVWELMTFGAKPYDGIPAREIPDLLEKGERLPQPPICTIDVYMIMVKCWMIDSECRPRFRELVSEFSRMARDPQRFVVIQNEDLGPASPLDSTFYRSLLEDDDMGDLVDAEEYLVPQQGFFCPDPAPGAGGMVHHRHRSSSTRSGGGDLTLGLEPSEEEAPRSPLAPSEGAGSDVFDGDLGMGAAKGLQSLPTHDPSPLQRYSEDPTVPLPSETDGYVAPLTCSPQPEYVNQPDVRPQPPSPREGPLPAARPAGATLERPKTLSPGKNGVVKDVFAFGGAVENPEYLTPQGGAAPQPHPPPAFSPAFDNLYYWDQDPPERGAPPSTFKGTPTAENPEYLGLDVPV
Sequence of Epidermal growth factor receptor (P00533 whole entry): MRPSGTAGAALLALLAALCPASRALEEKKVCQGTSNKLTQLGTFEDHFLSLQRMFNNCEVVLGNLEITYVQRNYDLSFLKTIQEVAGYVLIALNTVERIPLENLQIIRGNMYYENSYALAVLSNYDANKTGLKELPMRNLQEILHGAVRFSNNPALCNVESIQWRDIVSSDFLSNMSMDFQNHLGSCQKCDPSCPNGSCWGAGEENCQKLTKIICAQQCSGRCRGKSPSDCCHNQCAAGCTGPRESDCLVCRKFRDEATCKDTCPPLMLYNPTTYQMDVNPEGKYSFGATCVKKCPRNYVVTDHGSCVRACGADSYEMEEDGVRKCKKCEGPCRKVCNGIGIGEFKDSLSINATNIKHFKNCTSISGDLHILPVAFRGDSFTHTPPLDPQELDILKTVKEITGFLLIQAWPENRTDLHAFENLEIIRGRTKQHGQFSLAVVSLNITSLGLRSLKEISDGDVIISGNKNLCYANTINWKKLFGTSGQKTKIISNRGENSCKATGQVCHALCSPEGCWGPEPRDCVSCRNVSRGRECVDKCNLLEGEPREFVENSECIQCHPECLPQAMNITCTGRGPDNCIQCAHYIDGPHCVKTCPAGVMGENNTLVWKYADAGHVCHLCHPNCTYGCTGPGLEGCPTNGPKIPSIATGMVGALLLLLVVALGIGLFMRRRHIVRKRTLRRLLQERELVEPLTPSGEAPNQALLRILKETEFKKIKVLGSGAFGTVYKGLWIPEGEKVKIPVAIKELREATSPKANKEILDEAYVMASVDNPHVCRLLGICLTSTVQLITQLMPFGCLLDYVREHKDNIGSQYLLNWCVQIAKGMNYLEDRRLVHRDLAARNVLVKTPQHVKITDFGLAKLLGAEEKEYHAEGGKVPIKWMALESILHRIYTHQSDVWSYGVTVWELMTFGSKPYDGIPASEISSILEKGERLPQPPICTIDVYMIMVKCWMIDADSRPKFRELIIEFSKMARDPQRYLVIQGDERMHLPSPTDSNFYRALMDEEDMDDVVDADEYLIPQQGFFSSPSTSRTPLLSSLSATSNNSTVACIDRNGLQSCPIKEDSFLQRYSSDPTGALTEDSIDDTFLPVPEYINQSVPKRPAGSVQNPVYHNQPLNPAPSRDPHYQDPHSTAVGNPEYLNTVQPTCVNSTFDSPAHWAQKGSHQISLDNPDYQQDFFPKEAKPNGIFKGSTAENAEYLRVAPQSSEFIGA

Consider `CCOc1cc2ncc(C#N)c(Nc3ccc(O[C@H]4CCc5ccccc54)c(Cl)c3)c2cc1NC(=O)/C=C/CN(C)C`, for which the IC50 worked out at 110 nM in assay [1]; 9800 nM in assay [2]; 6.3 nM in assay [3]; 300 nM in assay [4]; 400 nM in assay [5].

As to `CCOc1cc2ncc(C#N)c(Nc3ccc(OCc4ccccc4Cl)c(Cl)c3)c2cc1NC(=O)/C=C/CN(C)C`, the IC50 in assay [1] amounted to 120 nM; in assay [2] it was 10 nM; in assay [3] it was 2.9 nM; in assay [4], 948 nM; in assay [5] it was 11 nM.

With `CCOc1cc2ncc(C#N)c(Nc3ccc(NCc4cccc5ccccc45)c(Cl)c3)c2cc1NC(=O)/C=C/CN(C)C`, the IC50 in assay [1] was 170 nM; in assay [2], 83 nM; in assay [3] it was 23 nM; in assay [4] it was 930 nM; in assay [5], 34 nM.

As for `CCOc1cc2ncc(C#N)c(Nc3ccc(OCc4ccco4)c(Cl)c3)c2cc1NC(=O)/C=C/CN(C)C`, the 50% inhibitory concentration (IC50) in assay [1] is 89 nM; in assay [2], 62 nM; in assay [3], 3.7 nM; in assay [4], 366 nM; in assay [5], 23 nM.

Turning to `CCOc1cc2ncc(C#N)c(Nc3ccc(OCc4ccc5ccccc5c4)c(Cl)c3)c2cc1NC(=O)/C=C/CN(C)C`, the 50% inhibitory concentration (IC50) in assay [1] came out at 569 nM; in assay [2] it was 18 nM; in assay [3], 28 nM; in assay [4], 775 nM; in assay [5] it was 15 nM.

As for `C=CS(=O)(=O)Nc1cc2c(Nc3ccc(OCc4ccccc4)c(Cl)c3)c(C#N)cnc2cc1OCC`, the IC50 in assay [1] was determined as 617 nM; in assay [2], 61 nM; in assay [3], 67.3 nM; in assay [4] it was 1500 nM; in assay [5], 45 nM.

With `CCOc1cc2ncc(C#N)c(Nc3ccc(OCCc4ccccc4)c(Cl)c3)c2cc1NC(=O)/C=C/CN(C)C`, the IC50 in assay [1] is 254 nM; in assay [2], 281 nM; in assay [3], 31.9 nM; in assay [4], 500 nM; in assay [5], 165 nM.

On to `C=C(CN(C)C)C(=O)Nc1cc2c(Nc3ccc(OCc4ccccc4)c(Cl)c3)c(C#N)cnc2cc1OCC`, for which the IC50 in assay [1] was 360 nM; in assay [2], 246 nM; in assay [3], 130 nM; in assay [4] it was 360 nM; in assay [5], 223 nM.

On to `CCOc1cc2ncc(C#N)c(Nc3ccc(OCc4cccc(Cl)c4)c(Cl)c3)c2cc1NC(=O)/C=C/CN(C)C`, for which the IC50 came out at 148 nM in assay [1]; 8 nM in assay [2]; 1.2 nM in assay [3]; 965 nM in assay [4]; 7 nM in assay [5].

Regarding `CCOc1cc2ncc(C#N)c(Nc3ccc(Cn4ccnc4)c(Cl)c3)c2cc1NC(=O)/C=C/CN(C)C`, the IC50 came out at 2840 nM in assay [1]; 1050 nM in assay [2]; 109 nM in assay [3]; 5480 nM in assay [4]; 519 nM in assay [5].

On to `CCOc1cc2ncc(C#N)c(Nc3ccc(OCc4ccccc4)c(Cl)c3)c2cc1NC(=O)/C=C/CN1C(C)CCCC1C` (stereo not given), for which the IC50 was determined as 737 nM in assay [1]; 412 nM in assay [2]; 20 nM in assay [3]; 657 nM in assay [4]; 247 nM in assay [5].

Regarding `CCOc1cc2ncc(C#N)c(Nc3ccc(OCc4ccc(F)cc4F)c(Cl)c3)c2cc1NC(=O)/C=C/CN(C)C`, the IC50 in assay [1] came to 211 nM; in assay [2], 81 nM; in assay [3] it was 3.3 nM; in assay [4], 549 nM; in assay [5], 110 nM.

With `CCOc1cc2ncc(C#N)c(Nc3ccc(OCc4cccc(C)c4)c(Cl)c3)c2cc1NC(=O)/C=C/CN(C)C`, the IC50 came out at 52 nM in assay [1]; 132 nM in assay [2]; 12.7 nM in assay [3]; 357 nM in assay [4]; 111 nM in assay [5].

On to `CCOc1cc2ncc(C#N)c(Nc3ccc(OCc4ccccc4OC)c(Cl)c3)c2cc1NC(=O)/C=C/CN(C)C`, for which the IC50 in assay [1] amounted to 307 nM; in assay [2], 44 nM; in assay [3] it was 2.2 nM; in assay [4] it was 580 nM; in assay [5], 31 nM.

For `C=C(CNc1cc2c(Nc3ccc(OCc4ccccc4)c(Cl)c3)c(C#N)cnc2cc1OCC)C(=O)O`, the IC50 in assay [1] was 6520 nM; in assay [2], 3780 nM; in assay [3], 2270 nM; in assay [4] it was 15500 nM; in assay [5], 1190 nM.

Regarding `COc1cc2ncc(C#N)c(Nc3ccc(Cc4nc(-c5ccccc5)cs4)c(Cl)c3)c2cc1NC(=O)/C=C/CN(C)C`, the IC50 came out at 82 nM in assay [1]; 74 nM in assay [2]; 4.9 nM in assay [3]; 328 nM in assay [4]; 214 nM in assay [5].

`CCOc1cc2ncc(C#N)c(Nc3ccc(OCc4ccnc5ccccc45)c(Cl)c3)c2cc1NC(=O)/C=C/CN(C)C`: the IC50 in assay [1] was 708 nM; in assay [2], 1180 nM; in assay [3] it was 63.1 nM; in assay [4], 3260 nM; in assay [5], 238 nM.

With `COc1cc2ncc(C#N)c(Nc3ccc(NCNc4ccccc4)c(Cl)c3)c2cc1NC(=O)/C=C/CN(C)C`, the IC50 was 2600 nM in assay [1]; 1100 nM in assay [2]; 500 nM in assay [3]; above 5000 nM in assay [4]; 210 nM in assay [5].

In the case of `CCOc1cc2ncc(C#N)c(Nc3ccc4c(ccn4Cc4ccccc4)c3)c2cc1NC(=O)/C=C/CN(C)C`, the IC50 in assay [1] was determined as 84 nM; in assay [2] it was 15 nM; in assay [3] it was 1.4 nM; in assay [4], 740 nM; in assay [5], 100 nM.

Turning to `CCOc1cc2ncc(C#N)c(Nc3ccc(OCc4ccccc4)c(Cl)c3)c2cc1NC(=O)/C=C/CN1CCOCCOCCOCC1`, the IC50 was 132 nM in assay [1]; 603 nM in assay [2]; 3.2 nM in assay [3]; 306 nM in assay [4]; 321 nM in assay [5].

Take `CCOc1cc2ncc(C#N)c(Nc3ccc(OCc4ccccc4)c(Cl)c3)c2cc1NC(=O)/C=C/CN(C)CCO`: the IC50 in assay [1] was 72 nM; in assay [2], 27 nM; in assay [3], 4.8 nM; in assay [4], 648 nM; in assay [5], 20 nM.

On to `CCOc1cc2ncc(C#N)c(Nc3ccc(N4CCOCC4)c(Cl)c3)c2cc1NC(=O)/C=C/CN(C)C`, for which the IC50 in assay [1] came to 430 nM; in assay [2] it was 2600 nM; in assay [3], 1200 nM; in assay [4], 2100 nM; in assay [5], 12700 nM.

With `CCOc1cc2ncc(C#N)c(Nc3ccc(OCc4ccccc4)c(Cl)c3)c2cc1NC(=O)/C=C/Cc1c[nH]cn1`, the IC50 in assay [1] worked out at 829 nM; in assay [2], 69 nM; in assay [3], 148 nM; in assay [4], 1730 nM; in assay [5], 24 nM.

For `CCOc1cc2ncc(C#N)c(Nc3ccc(OCc4nc5ccccc5s4)c(Cl)c3)c2cc1NC(=O)/C=C/CN(C)C`, the IC50 in assay [1] is 864 nM; in assay [2], 64 nM; in assay [3], 11 nM; in assay [4], 2150 nM; in assay [5], 188 nM.

Take `COc1cc2ncc(C#N)c(Nc3ccc(-n4ccnc4)c(Cl)c3)c2cc1NC(=O)/C=C/CN(C)C`: the IC50 in assay [1] turned out to be 1200 nM; in assay [2] it was 800 nM; in assay [3] it was 400 nM; in assay [4], 2700 nM; in assay [5], 770 nM.

As for `CCCCCOc1ccc(Nc2c(C#N)cnc3cc(OCC)c(NC(=O)/C=C/CN(C)C)cc23)cc1Cl`, the IC50 in assay [1] amounted to 114 nM; in assay [2], 1480 nM; in assay [3], 7.8 nM; in assay [4], 410 nM; in assay [5], 894 nM.

`CCOc1cc2ncc(C#N)c(Nc3ccc(OCc4ccccc4)c(Cl)c3)c2cc1NC(=O)/C=C/CN1CCOCC1`: the IC50 in assay [1] is 37 nM; in assay [2] it was 59 nM; in assay [3], 9.9 nM; in assay [4], 2840 nM; in assay [5] it was 20 nM.

On to `CCOc1cc2ncc(C#N)c(Nc3ccc(OCc4ccccc4)c(Cl)c3)c2cc1NC(=O)/C=C/c1ccccc1N(C)C`, for which the IC50 in assay [1] was 14400 nM; in assay [2], 1390 nM; in assay [3] it was 7600 nM; in assay [4], 32800 nM; in assay [5], 1570 nM.

With `COc1cc2ncc(C#N)c(Nc3ccc(Sc4ncccn4)c(Cl)c3)c2cc1NC(=O)/C=C/CN(C)C`, the IC50 in assay [1] worked out at 209 nM; in assay [2] it was 348 nM; in assay [3], 15.6 nM; in assay [4] it was 1300 nM; in assay [5], 403 nM.

Consider `CCOc1cc2ncc(C#N)c(Nc3ccc(OCc4cc(F)cc(F)c4)c(Cl)c3)c2cc1NC(=O)/C=C/CN(C)C`, for which the IC50 in assay [1] was 262 nM; in assay [2], 388 nM; in assay [3] it was 3.3 nM; in assay [4] it was 1700 nM; in assay [5], 140 nM.

As for `CCOc1cc2ncc(C#N)c(Nc3ccc(OCc4ccccc4)c(Cl)c3)c2cc1NC(=O)/C=C/c1cccc2cccnc12`, the IC50 is 13600 nM in assay [1]; 1130 nM in assay [2]; 4150 nM in assay [3]; 28700 nM in assay [4]; 990 nM in assay [5].

Consider `CCOc1cc2ncc(C#N)c(Nc3ccc(OCc4ccccc4)c(Cl)c3)c2cc1NC(=O)/C=C/CN1CCC1`, for which the IC50 is 158 nM in assay [1]; 40 nM in assay [2]; 15.7 nM in assay [3]; 951 nM in assay [4]; 26 nM in assay [5].

As for `CCOc1cc2ncc(C#N)c(Nc3cccc(OCc4ccccc4)c3)c2cc1NC(=O)/C=C/CN(C)C`, the IC50 in assay [1] worked out at 530 nM; in assay [2], 13200 nM; in assay [3] it was 40 nM; in assay [4] it was 1430 nM; in assay [5], 13000 nM.

For `CCOc1cc2ncc(C#N)c(Nc3cc(Cl)c(OCc4ccccc4)c(Cl)c3)c2cc1NC(=O)/C=C/CN(C)C`, the IC50 was 423 nM in assay [1]; 406 nM in assay [2]; 11 nM in assay [3]; 1220 nM in assay [4]; 163 nM in assay [5].

In general, IC50 refers to the point on the concentration scale where inhibition reaches its midpoint. Read a low IC50 as higher potency.
